Results reported in patent publication US10952999B2, “Inhibitor of cyclin-dependent kinase CDK9” (GENFLEET THERAPEUTICS (SHANGHAI) INC., priority 2017, dated 2021).

What was measured:
[1] = test system: acute promyelocytic leukemia cell line NB-4; test: Cancer cell growth, Cell Titer-Glo cell viability assay, 72 hours; format: cell-based; details: NB4, 72 hours
Excerpt: (§1) In the examples, we used acute myelocytic leukemia (AML) OCI-AML-3, acute promyelocytic leukemia cell line NB-4, MDS-RAEB (myelodysplastic syndrome-excess blasts type) cell line SKM-1, human leukemia cell Nomo-1, acute myeloid leukemia cell line MOLM14, acute myeloid leukemia cell line MOLM13, acute myeloid leukemia cell line MV4-11, acute myeloid leukemia cell line HL-60, acute myeloid leukemia cell line OCI-AML-2, histiocytic lymphoma U-937, acute B cell leukemia cell line MEC-1, acute B cell leukemia cell line MEC-2, acute megakaryoblastic leukemia CMK, hamster lung cell CHL, hamster ovary cell CHO, human non-small cell lung cancer cell H1975, human non-small cell lung cancer cell H358, human small cell lung cancer cell H209, human lung adenocarcinoma cell H1395, human non-small cell lung cancer cell PC-9, human lung cancer cell H3122, human non-small cell lung cancer cell H2122, human non-small cell lung cancer cell H1915, human lung adenocarcinoma cell H1355, human non-small cell lung cancer cell HCC827, human breast cancer cell MDA-MB-231, human breast cancer cell MDA-MB-468, human breast cancer cell MCF-7, human breast cancer cell T47D, human breast cancer cell SK-Br-3, the above cells were purchased from ATCC.
(§2) Cell Titer-Glo® (Promega, USA) chemical self-luminescence cell viability assay kit was used to detect the number of viable cells by quantitatively measuring ATP in living cells, according to which to calculate GI50 and IC50.

[2] = test system: human leukemia cell Nomo-1; test: as above; format: cell-based; details: Nomo-1, 72 hours
Excerpt: as §1, §2

[3] = test system: acute myeloid leukemia cell line MOLM13; test: as above; format: cell-based; details: MOLM-13, 72 hours
Excerpt: as §1, §2

[4] = test system: acute megakaryoblastic leukemia CMK; test: as above; format: cell-based
Excerpt: as §1, §2

[5] = test system: acute B cell leukemia cell line MEC-1; test: as above; format: cell-based; details: MEC-1, 72 hours
Excerpt: as §1, §2

[6] = test system: hamster lung cell CHL; test: as above; format: cell-based; details: for inhibitory effect on normal cell CHL (in words): CHL cells; for GI50: CHL, 72 hours
Excerpt: as §1, §2

[7] = test system: acute myeloid leukemia cell line OCI-AML-2; test: as above; format: cell-based; details: OCI-AML2, 72 hours
Excerpt: as §1, §2

[8] = test system: acute myeloid leukemia cell line MV4-11; test: as above; format: cell-based; details: MV4-11, 72 hours
Excerpt: as §1, §2

[9] = test system: acute myeloid leukemia cell line MOLM14; test: as above; format: cell-based; details: MOLM-14, 72 hours
Excerpt: as §1, §2

[10] = test system: acute myelocytic leukemia (AML) OCI-AML-3; test: as above; format: cell-based; details: OCI-AML3, 72 hours
Excerpt: as §1, §2

[11] = test system: hamster ovary cell CHO; test: as above; format: cell-based; details: for inhibitory effect on normal cell CHO (in words): CHO cells; for GI50: CHO, 72 hours
Excerpt: as §1, §2

[12] = test system: MDS-RAEB (myelodysplastic syndrome-excess blasts type) cell line SKM-1; test: as above; format: cell-based; details: SKM-1, 72 hours
Excerpt: as §1, §2

[13] = test system: acute B cell leukemia cell line MEC-2; test: as above; format: cell-based; details: MEC-2, 72 hours
Excerpt: as §1, §2

[14] = test system: histiocytic lymphoma U-937; test: as above; format: cell-based; details: U-937, 72 hours
Excerpt: as §1, §2

[15] = test system: acute myeloid leukemia cell line HL-60; test: as above; format: cell-based; details: HL-60, 72 hours
Excerpt: as §1, §2

[16] = biological target: T1, CDK3/cyclin E1 (Homo sapiens, UniProt Q00526); test: Enzyme assay for inhibition of CDK protein in vitro (Z-LYTE); format: biochemical
T1 construct: purchased Invitrogen, USA
Description: (§3) Compounds 1 and 14 diluted in DMSO were mixed with detected CDK protein (Invitrogen, USA) respectively, incubated at room temperature for 30 minutes; and then mixed with Kinase/Z-LYTE™ Peptide Substrate Mixture (Invitrogen, USA) and 4×ATP. The mixed system was transferred to a 384-well white opaque plate to react for 1 hour at room temperature; 5 μL of Development Solution (Invitrogen, USA) was added to react at room temperature for 1 hour, and finally Stop Reagent (Invitrogen, USA) was added to terminate the reaction and MD SpectraMax I3× microplate reader (Molecular Devices, USA) was used to read fluorescence values.

[17] = biological target: T2, CDK9/cyclin T1 (Homo sapiens, UniProt P50750); test: as above; format: biochemical
T2 construct: purchased Invitrogen, USA
Description: as §3

[18] = biological target: T3, CDK8/cyclin C (Homo sapiens, UniProt P49336); test: as above; format: biochemical
T3 construct: purchased Invitrogen, USA
Description: as §3

[19] = biological target: T4, CDK11(non-active) (Homo sapiens, UniProt Q9BWU1); test: as above; format: biochemical
T4 construct: purchased Invitrogen, USA
Description: as §3

[20] = test system: human non-small cell lung cancer cell H2122; test: Cancer cell growth, Cell Titer-Glo cell viability assay, 72 hours; format: cell-based; details: NCI-H2122, H2122, 72 hours
Excerpt: as §1, §2

[21] = test system: human small cell lung cancer cell H209; test: as above; format: cell-based; details: NCI-H209, H209, 72 hours
Excerpt: as §1, §2

[22] = test system: human lung cancer cell H3122; test: as above; format: cell-based; details: NCI-H3122, H3122, 72 hours
Excerpt: as §1, §2

[23] = test system: human non-small cell lung cancer cell H1915; test: as above; format: cell-based; details: NCI-H1915, H1915, 72 hours
Excerpt: as §1, §2

[24] = test system: human breast cancer cell SK-Br-3; test: as above; format: cell-based; details: SK-Br-3, 72 hours
Excerpt: as §1, §2

[25] = test system: human non-small cell lung cancer cell H1975; test: as above; format: cell-based; details: NCI-H1975, H1975, 72 hours
Excerpt: as §1, §2

[26] = test system: human lung adenocarcinoma cell H1355; test: as above; format: cell-based; details: NCI-H1355, H1355, 72 hours
Excerpt: as §1, §2

[27] = test system: human breast cancer cell MDA-MB-231; test: as above; format: cell-based; details: MDA-MB-231, 72 hours
Excerpt: as §1, §2

[28] = test system: human non-small cell lung cancer cell PC-9; test: as above; format: cell-based; details: PC-9, 72 hours
Excerpt: as §1, §2

[29] = test system: human breast cancer cell MDA-MB-468; test: as above; format: cell-based; details: MDA-MB-468, 72 hours
Excerpt: as §1, §2

[30] = test system: human lung adenocarcinoma cell H1395; test: as above; format: cell-based; details: NCI-H1395, H1395, 72 hours
Excerpt: as §1, §2

[31] = test system: human breast cancer cell T47D; test: as above; format: cell-based
Excerpt: as §1, §2

[32] = test system: human non-small cell lung cancer cell HCC827; test: as above; format: cell-based; details: HCC827, 72 hours
Excerpt: as §1, §2

[33] = test system: human non-small cell lung cancer cell H358; test: as above; format: cell-based; details: NCI-H358, H358, 72 hours
Excerpt: as §1, §2

[34] = test system: human breast cancer cell MCF-7; test: as above; format: cell-based; details: MCF7, MCF-7, 72 hours
Excerpt: as §1, §2

T3 sequence (P49336 whole entry): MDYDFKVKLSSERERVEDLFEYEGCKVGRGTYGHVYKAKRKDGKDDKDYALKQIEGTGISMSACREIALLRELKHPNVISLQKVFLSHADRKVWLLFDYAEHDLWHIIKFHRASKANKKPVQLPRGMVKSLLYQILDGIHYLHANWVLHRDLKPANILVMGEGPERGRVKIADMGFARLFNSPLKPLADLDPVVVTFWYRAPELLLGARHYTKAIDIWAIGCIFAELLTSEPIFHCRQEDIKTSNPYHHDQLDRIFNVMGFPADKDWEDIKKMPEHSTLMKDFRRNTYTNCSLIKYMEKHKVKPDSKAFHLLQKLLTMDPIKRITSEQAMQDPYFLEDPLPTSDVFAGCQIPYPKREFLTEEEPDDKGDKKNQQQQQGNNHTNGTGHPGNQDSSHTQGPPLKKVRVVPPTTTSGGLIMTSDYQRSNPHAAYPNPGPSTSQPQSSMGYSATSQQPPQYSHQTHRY
T3 sequence (P24863 whole entry partner): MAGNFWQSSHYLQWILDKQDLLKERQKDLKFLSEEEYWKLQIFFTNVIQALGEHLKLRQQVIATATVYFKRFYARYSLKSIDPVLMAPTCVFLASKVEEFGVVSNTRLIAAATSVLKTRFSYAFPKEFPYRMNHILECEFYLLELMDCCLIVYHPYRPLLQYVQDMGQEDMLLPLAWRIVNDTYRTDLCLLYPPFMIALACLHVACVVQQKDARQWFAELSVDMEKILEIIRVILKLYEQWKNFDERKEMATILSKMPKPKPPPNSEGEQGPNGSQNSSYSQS
T1 sequence (Q00526 whole entry): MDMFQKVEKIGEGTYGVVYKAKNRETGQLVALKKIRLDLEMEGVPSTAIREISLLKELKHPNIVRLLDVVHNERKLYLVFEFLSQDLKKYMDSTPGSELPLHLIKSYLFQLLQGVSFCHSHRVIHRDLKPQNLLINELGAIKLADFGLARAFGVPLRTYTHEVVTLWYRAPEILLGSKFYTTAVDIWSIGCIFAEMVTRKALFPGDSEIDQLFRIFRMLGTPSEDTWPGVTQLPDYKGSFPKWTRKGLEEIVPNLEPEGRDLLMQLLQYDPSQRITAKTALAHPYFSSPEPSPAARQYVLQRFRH
T1 sequence (P24864 whole entry partner): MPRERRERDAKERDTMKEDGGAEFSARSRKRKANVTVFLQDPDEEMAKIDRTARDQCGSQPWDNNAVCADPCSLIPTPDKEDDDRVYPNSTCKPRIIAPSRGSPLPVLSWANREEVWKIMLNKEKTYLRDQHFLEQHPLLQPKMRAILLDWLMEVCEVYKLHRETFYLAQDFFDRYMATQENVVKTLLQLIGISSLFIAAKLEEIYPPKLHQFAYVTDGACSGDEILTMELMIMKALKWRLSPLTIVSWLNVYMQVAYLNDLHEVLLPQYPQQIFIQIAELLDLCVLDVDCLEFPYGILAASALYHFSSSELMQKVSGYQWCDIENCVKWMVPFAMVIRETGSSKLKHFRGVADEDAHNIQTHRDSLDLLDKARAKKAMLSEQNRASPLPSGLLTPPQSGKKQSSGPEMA
T2 sequence (P50750 whole entry): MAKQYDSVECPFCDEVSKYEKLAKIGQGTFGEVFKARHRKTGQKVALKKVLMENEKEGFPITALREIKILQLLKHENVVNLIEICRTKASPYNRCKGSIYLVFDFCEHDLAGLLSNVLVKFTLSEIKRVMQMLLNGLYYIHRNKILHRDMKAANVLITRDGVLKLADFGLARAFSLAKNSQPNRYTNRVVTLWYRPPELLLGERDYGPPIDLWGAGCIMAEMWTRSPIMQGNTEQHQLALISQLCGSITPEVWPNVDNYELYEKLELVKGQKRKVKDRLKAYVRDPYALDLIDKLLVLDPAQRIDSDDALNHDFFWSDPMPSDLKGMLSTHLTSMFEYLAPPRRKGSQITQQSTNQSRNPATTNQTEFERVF
T2 sequence (O60563 whole entry partner): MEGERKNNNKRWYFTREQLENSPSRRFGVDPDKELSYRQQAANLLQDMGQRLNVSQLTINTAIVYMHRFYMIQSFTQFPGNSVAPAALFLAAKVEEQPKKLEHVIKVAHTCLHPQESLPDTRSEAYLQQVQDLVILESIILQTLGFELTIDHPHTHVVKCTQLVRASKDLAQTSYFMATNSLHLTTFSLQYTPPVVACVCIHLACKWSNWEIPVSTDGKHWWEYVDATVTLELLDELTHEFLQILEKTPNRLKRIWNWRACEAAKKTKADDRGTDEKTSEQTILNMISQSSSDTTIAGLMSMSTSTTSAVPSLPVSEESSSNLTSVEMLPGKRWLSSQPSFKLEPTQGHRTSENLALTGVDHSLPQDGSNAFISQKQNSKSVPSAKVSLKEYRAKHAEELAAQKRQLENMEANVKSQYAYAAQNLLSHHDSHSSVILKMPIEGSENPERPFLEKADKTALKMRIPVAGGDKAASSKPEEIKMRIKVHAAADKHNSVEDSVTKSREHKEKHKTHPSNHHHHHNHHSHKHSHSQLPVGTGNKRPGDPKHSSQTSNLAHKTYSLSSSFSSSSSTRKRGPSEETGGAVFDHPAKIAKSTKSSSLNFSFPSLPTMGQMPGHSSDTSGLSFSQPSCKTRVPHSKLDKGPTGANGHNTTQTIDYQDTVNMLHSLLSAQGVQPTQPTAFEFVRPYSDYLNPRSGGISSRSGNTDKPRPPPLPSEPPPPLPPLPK
T4 sequence (Q9BWU1 whole entry): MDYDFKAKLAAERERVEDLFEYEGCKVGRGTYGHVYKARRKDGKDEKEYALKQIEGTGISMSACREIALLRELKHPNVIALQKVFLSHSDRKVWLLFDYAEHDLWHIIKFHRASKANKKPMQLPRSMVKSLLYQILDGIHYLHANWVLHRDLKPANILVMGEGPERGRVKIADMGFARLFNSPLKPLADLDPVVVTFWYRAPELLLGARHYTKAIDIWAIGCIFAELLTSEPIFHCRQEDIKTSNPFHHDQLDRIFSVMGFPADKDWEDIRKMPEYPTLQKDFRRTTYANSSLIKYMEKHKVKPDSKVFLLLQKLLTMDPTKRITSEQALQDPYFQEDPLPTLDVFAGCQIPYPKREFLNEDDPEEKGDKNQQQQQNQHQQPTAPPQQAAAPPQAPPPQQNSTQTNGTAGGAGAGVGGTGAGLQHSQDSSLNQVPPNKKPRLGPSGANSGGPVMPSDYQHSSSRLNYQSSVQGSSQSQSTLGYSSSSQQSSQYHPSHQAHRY

| Structure (SMILES) | GI50 [1] [nM] | GI50 ([2]; Homo sapiens) [nM] | GI50 ([3]; Homo sapiens) [nM] | GI50 [4] [nM] | GI50 ([5]; Homo sapiens, MEC1) [nM] | inhibitory effect on normal cell CHL (in words) [6] | GI50 [6] [nM] | GI50 ([7]; Homo sapiens) [nM] | GI50 ([8]; Homo sapiens) [nM] | GI50 ([9]; Homo sapiens) [nM] | GI50 ([10]; Homo sapiens, OCI-AML-3) [nM] | inhibitory effect on normal cell CHO (in words) [11] | GI50 [11] [nM] | GI50 ([12]; Homo sapiens) [nM] | GI50 ([13]; MEC2) [nM] | GI50 ([14]; Homo sapiens) [nM] | GI50 ([15]; Homo sapiens) [nM] | also measured |
| --- | --- | --- | --- | --- | --- | --- | --- | --- | --- | --- | --- | --- | --- | --- | --- | --- | --- | --- |
| COCCN[C@H]1CC[C@H](Nc2cc(-c3csc(NCC4(C#N)CCOCC4)n3)c(Cl)cn2)CC1 [Compound 14, 4-((4-(5-chloro-2-(((1r,4r)-4-((2-methoxyethyl)amino)cyclohexyl)amino)pyridin-4-yl)thiazol-2-ylamino)methyl)tetrahydro-2H-pyran-4-carbonitrile] | 7.9 | 110 | 12 | 36 | 37 | no inhibitory effect | 1200 | 6.6 | 41 | 1.1 | 12 | no inhibitory effect | 1100 | 2 | 23 | 11 | 56 | IC50 [16]: > 10000 nM; IC50 [17]: 1.27 nM; IC50 [18]: > 10000 nM; IC50 [19]: > 10000 nM |
| COCCN[C@H]1CC[C@H](Nc2cc(-c3csc(NCC4CCOCC4)n3)ccn2)CC1 [Compound 18, (1r,4r)-N^1-(2-methoxyethyl)-N^4-(4-(2-(((tetrahydro-2H-pyran-4-yl)methyl)amino)thiazol-4-yl)pyridin-2-yl)cyclohexane-1,4-diamine] | 1300 | 3000 | 1200 | 4000 | 2500 | – | 1200 | 1100 | 910 | 1200 | 2100 | – | 4100 | 1100 | 1700 | 1100 | 980 | – |
| CCc1cnn2c(NCc3ccc[n+]([O-])c3)cc(N3CCCC[C@H]3CCO)nc12 [Dinaciclib, reference compound] | 10 | 34 | 3.3 | 9.9 | 11 | – | 180 | 13 | 7.6 | 4.5 | 11 | – | 160 | 10 | 10 | 3.6 | 8 | – |
| NC1CCC(Nc2cc(-c3cccc(NCc4cccc(F)c4)n3)c(Cl)cn2)CC1 (centres unmarked) [HY-16462, reference compound] | 32 | – | – | 42 | – | certain inhibitory effects | 200 | – | – | – | – | certain inhibitory effects | 290 | – | – | – | – | GI50 [2]: 63 nM; GI50 [3]: 32 nM; GI50 [5]: 48 nM; GI50 [7]: 71 nM; GI50 [8]: 27 nM; GI50 [9]: 33 nM; GI50 [10]: 47 nM; GI50 [12]: 40 nM; GI50 [13]: 36 nM; GI50 [14]: 31 nM; GI50 [15]: 37 nM |
| CC(=O)c1c(C)c2cnc(Nc3ccc(N4CCNCC4)cn3)nc2n(C2CCCC2)c1=O [Palbociclib, reference compound] | – | – | – | – | – | – | – | – | – | – | – | – | – | – | – | – | – | IC50 [20]: 1600 nM; IC50 [21]: > 10000 nM; IC50 [22]: 1200 nM; IC50 [23]: 3600 nM; IC50 [24]: 3200 nM; IC50 [25]: > 10000 nM; IC50 [26]: ~10000 nM; IC50 [27]: 5100 nM; IC50 [28]: > 10000 nM; IC50 [29]: 2700 nM; IC50 [30]: > 10000 nM; IC50 [31]: 4100 nM; IC50 [32]: > 10000 nM; IC50 [33]: 6600 nM; IC50 [34]: 1700 nM |
